# Measured values published in patent publication US12337003B2, “Pharmaceutical compositions for combination therapy” (Intercept Pharmaceuticals, Inc., priority 2015, dated 2025).
# Tests used:
# [1] = test system: APOE*3Leiden.CETP transgenic mice on high fat diet; assay: Diet induced NASH in APOE*3Leiden.CETP mice, hepatic inflammation score; type: in vivo
# Procedure: This experiment was performed to evaluate the effects of OCA and fenofibrate, alone or in combination, on the development of diet induced NASH and liver fibrosis in APOE*3Leiden.CETP transgenic mice. Hepatic gene expression profiling and subsequent pathway analysis were performed to determine whether the combination regulates novel genes not regulated by either monotherapy treatment, and/or more strongly regulates genes also impacted by the monotherapy.
# Male APOE*3Leiden.CETP transgenic mice (9-21 weeks old) were obtained and housed 2-5 mice per cage. The mice were fed a high fat diet containing 24% lard and 1% (w/w) cholesterol. The run in period was 15 weeks on the high fat diet. At week 16, mice were matched based on age, body weight, plasma cholesterol and triglycerides after 4 h fasting.
# • Mice (n=15) were fed a high fat diet during the run in weeks 0 to 14. Group 2: HFC control group • Mice (n=15) were fed a high fat diet from weeks 0 to 24. Group 3: HFC+OCA • Mice (n=15) were fed a high fat diet supplemented with OCA at a dose of 10 mg/kg once daily from week 16 to 24. Group 4: HFC+low dose fenofibrate • Mice (n=15) were fed a high fat diet supplemented with fenofibrate at a dose of 10 mg/kg once daily from week 16 to 24. Group 5: HFC+high dose fenofibrate • Mice (n=15) were fed a high fat diet supplemented with fenofibrate at a dose of 40 mg/kg once daily from week 16 to 24. Group 6: HFC+OCA+low dose fenofibrate • Mice (n=15) were fed a high fat diet supplemented with OCA at a dose of 10 mg/kg once daily and fenofibrate at a dose of 10 mg/kg once daily from week 16 to 24. Group 7: HFC+OCA+high dose fenofibrate • Mice (n=15) were fed a high fat diet supplemented with OCA at a dose of 10 mg/kg once daily and fenofibrate at a dose of 40 mg/kg once daily from week 16 to 24. Group 8: Chow control group • Mice (n=8) were feed chow from week 0 to 24. Study Design
# Mice were fed a high fat chow (HFC) diet for […]. After 15 weeks on the HFC diet, HFC mice were matched into 7 groups based on age, body weight, plasma cholesterol and triglycerides after 4 h fasting. Mice were treated with of OCA and fenofibrate, alone or in combination beginning at week 15 and sacrificed at week 25 in an unfasted state. One week before sacrifice, mice were labeled with D20, by i.p. injection of a bolus of D20 and subsequent addition of 4% D20 to the drinking water. Plasma (EDTA) was obtained by heart puncture and stored at −70° C. The liver was weighed and 4 pieces of liver were isolated: 1 piece (medial lobe) was fixed in 10% formalin (for NASH and fibrosis histology) and 3 pieces (sinister lobe) were snap-frozen in liquid N2 and stored individually at −70° C.
# Inflammation is a key feature of NASH. Inflammation was categorized according to the procedure by Liang et al., PlosOne 2014 Dec. 9(12) and scored by quantitatively analyzing the number of inflammatory cells aggregates. In particular, the level of inflammation was evaluated by counting the number of inflammatory foci per field using a 100× magnification (view size of 3.1 mm2; average of five different fields).
# [2] = test system: patients with non-cirrhotic, non-alcoholic steatohepatitis; assay: Randomized placebo-controlled clinical trial in non-alcoholic steatohepatitis; type: in vivo, humans; details: at 24 weeks; 25 mg daily orally vs placebo; 95% CI −45 to −3
# Procedure: A multicenter, double-blind, placebo-controlled, parallel group, randomized clinical trial was conducted in patients with non-cirrhotic, non-alcoholic steatohepatitis to assess treatment with obeticholic acid given orally (25 mg daily) or placebo for 72 weeks. Patients were randomly assigned 1:1 using a computer-generated, centrally administered procedure, stratified by clinical center and diabetes status. The primary outcome measure was improvement in centrally scored liver histology defined as a decrease in non-alcoholic fatty liver disease activity score by at least 2 points without worsening of fibrosis from baseline to the end of treatment. Change in alanine aminotransferase at 24 weeks was measured: relative change in alanine aminotransferase −24%, 95% CI −45 to −3.
# Patients were enrolled in the study according to the following inclusion criteria: 18 years or older at the time of screening, histological evidence of definite or borderline non-alcoholic steatohepatitis based upon a liver biopsy obtained 90 days or less before randomization, and a histological non-alcoholic fatty liver disease (NAFLD) activity score of 4 or more with a score of 1 or more in each component of the score (steatosis scored 0-3, ballooning 0-2, and lobular inflammation 0-3). Grading and staging of biopsies for the purposes of enrollment were carried out at the site of enrollment. […]
# [3] = test system: rat aortic smooth muscle cell; details: Li 2007; cited from earlier work
# [4] = test system: intestinal tissue of two animal models of inflammatory bowel disease (DSS and trinitrobenzene sulfonic acid); details: DSS and trinitrobenzene sulfonic acid models (Gadaleta 2011); cited from earlier work
# [5] = test system: kidney of a rat model of Type 1 diabetes; details: rat model of Type 1 diabetes (Wang 2010); cited from earlier work
compound,measurement,setting,value
"CC[C@H]1[C@@H](O)[C@@H]2[C@H](CC[C@]3(C)[C@@H]([C@H](C)CCC(=O)O)CC[C@@H]23)[C@@]2(C)CC[C@@H](O)C[C@@H]12 [OCA, 3α,7α-dihydroxy-6α-ethyl-5β-cholan-24-oic acid]",Inflammation (# of inflammatory cell foci),"[1]; OCA 10 mg/kg and/or low dose fenofibrate 10 mg/kg, in high fat diet",29.1 ± 22.7
same,effect on number of inflammatory cell foci,"[1]; after 10 weeks, OCA 10 mg/kg and/or fenofibrate 10 mg/kg, relative to vehicle control",neither OCA (10 mg/kg) nor fenofibrate (10 mg/kg) reduced
same,relative change in alanine aminotransferase,[2],−24%
same,pharmacologically-induced rat aortic smooth muscle cell migration,[3],abolished
same,production of iNOS or COX-2 induced by IL-1β,[3],inhibited
same,inflammatory infiltrates in intestinal tissue,[4],inhibition of inflammatory infiltrates
same,inflammatory infiltrates in kidney,[5],inhibition of inflammatory infiltrates
